Data set [1] relates to human pancreas ductal adenocarcinoma Panc cells (Panc1). Kind of data set: Cancer cell line growth inhibition assay (DNA content). The note with it: for Cellular IC50s Panc 1: Table 1, triazole derivatives, one cell printed for both cell lines; for activity in cell growth inhibition: Panc1, statement in text. In kind it is cell-based. The protocol:
(§1) The growth inhibition assay was performed in the Preclinical Drug Testing Laboratory of the Case Comprehensive Cancer Center using a standardized protocol. Cell lines (human colon cancer HCT116 and human pancreas ductal adenocarcinoma Panc cells) were maintained in standard growth media; RPMI1640+10% FBS+2 mM glutamine+100 U/ml penicillin, 100 ug/ml streptomycin and shown to be negative for mycoplasma contamination using the MycoAlert™ Mycoplasma Detection kit (Lonza, Basel, Switzerland). Cell identity was verified by Short Tandem Repeat (STR) testing performed using the Promega StemElite kit, in the Genetic Resources Core Facility (GRCF) at Johns Hopkins University.
(§2) For growth inhibition assays, cells were harvested by trypsinization and seeded into 96-well tissue culture plates at 2500 cells/mL. The following day an equal volume of 2×-drug containing medium was added to each well. The cells were cultured for 3 additional days at 37° C. in a 5% CO2 humidified incubator. Cell growth was assessed by measuring DNA content per well using the method of Labarca and Paigen. Dye fluorescence was measured in a Perkin-Elmer 1420 Victor 3 Multilabel plate reader using 355 nm excitation and 460 nm emission.

The test system of data set [2] is human colon cancer HCT116. Described as above. In kind it is cell-based. The note with it: for Cellular IC50s HCT-116: Table 1, triazole derivatives, one cell printed for both cell lines; for pIC50: HCT-116; for activity in cell growth inhibition: HCT116, statement in text. The protocol: as §1, §2
Data set [3] deals with normal mobilized peripheral blood progenitor cells. The note with it: previously characterized; cited from earlier work.
In another data set the target is T1, hRRM1 hexamers (Homo sapiens, UniProt P23921).
T1 sequence (P23921 1-792): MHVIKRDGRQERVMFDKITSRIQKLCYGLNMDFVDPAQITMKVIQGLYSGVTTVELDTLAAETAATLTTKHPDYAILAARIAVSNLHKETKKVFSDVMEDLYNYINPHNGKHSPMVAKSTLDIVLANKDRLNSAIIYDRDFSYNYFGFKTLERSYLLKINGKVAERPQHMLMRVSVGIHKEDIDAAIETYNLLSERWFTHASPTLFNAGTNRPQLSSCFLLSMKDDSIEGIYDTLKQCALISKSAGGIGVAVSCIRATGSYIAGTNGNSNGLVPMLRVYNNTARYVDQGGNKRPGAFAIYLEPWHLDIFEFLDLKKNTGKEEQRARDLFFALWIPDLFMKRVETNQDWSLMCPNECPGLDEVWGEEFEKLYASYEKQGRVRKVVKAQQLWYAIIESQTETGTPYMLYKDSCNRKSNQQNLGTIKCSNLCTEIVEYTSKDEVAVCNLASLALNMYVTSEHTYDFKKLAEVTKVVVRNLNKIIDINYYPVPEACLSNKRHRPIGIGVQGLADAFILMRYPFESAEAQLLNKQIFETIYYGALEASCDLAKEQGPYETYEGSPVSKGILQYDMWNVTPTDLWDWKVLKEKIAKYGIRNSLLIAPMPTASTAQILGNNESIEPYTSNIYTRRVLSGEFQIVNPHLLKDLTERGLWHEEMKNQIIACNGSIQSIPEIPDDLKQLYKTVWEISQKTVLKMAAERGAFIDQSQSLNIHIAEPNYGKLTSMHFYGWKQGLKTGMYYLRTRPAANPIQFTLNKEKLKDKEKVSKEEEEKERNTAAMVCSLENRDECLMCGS
The note with it: background statement; cited from earlier work.

The mark [4] stands for this setting: Homo sapiens, PANC-1, Panc1, Calcusyn fit, runs Oct. 21 and Oct. 24, 2016, read-out: Dm.
Setting [5] is: Homo sapiens, Calcusyn fit, runs Oct. 21 and Oct. 24, 2016, read-out: Dm.
Setting [6] is: Homo sapiens, PANC-1, Table 2, oxadiazoles, read-out: Cellular IC50s Panc 1.
The mark [7] stands for this setting: Homo sapiens, Table 2, oxadiazoles, read-out: Cellular IC50s HCT-116.

These results are taken from patent US11439623B2, “Method of modulating ribonucleotide reductase” (CASE WESTERN RESERVE UNIVERSITY, priority 2017, dated 2022).

Structures are written as SMILES. pIC50: −log10 of the molar value. Where “and” joins values, the source holds several entries; their conditions need not be identical. Equal entries are not always repeated. Where two headings read alike, the source gives them in different places. Where only a bound is given, the exact number is not on record here.

With `COc1ccc2cc(-c3cn(Cc4ccccc4)nn3)ccc2c1`, the “Cellular IC50s Panc 1” value in data set [1] is on record as “No cytotoxicity”. The “Cellular IC50s HCT-116” value in data set [2] is listed as “No cytotoxicity”.

As to `COc1ccc2cc(-c3cn(CCc4ccc(O)cc4)nn3)ccc2c1`, in data set [1], the “Cellular IC50s Panc 1” value was “No cytotoxicity”. Further, the “Cellular IC50s HCT-116” value in data set [2] was “No cytotoxicity”.

On to `O=C(O)CC(c1ccccc1)n1cc(-c2c(O)ccc3ccccc23)nn1` (stereo not drawn), for which the “Cellular IC50s Panc 1” value in data set [1] was “No cytotoxicity”. The “Cellular IC50s HCT-116” value in data set [2] is on record as “No cytotoxicity”.

As to `C[C@@H]([C@H](O)c1ccccc1)n1cc(-c2c(O)ccc3ccccc23)nn1`, the “Cellular IC50s Panc 1” value in data set [1] was “No cytotoxicity”. In addition, in data set [2], the “Cellular IC50s HCT-116” value is on record as “No cytotoxicity”.

With `Cc1c(-n2cc(-c3c(O)ccc4ccccc34)nn2)c(=O)n(-c2ccccc2)n1C`, the “Cellular IC50s Panc 1” value in data set [1] is listed as “No cytotoxicity”. In data set [2], the “Cellular IC50s HCT-116” value was “No cytotoxicity”.

On to `O=C(NN=Cc1c(O)ccc2ccccc12)c1ccccc1O` [NSAAH, Naphthyl Salicyl Acyl Hydrazone, reference compound], for which the pIC50 is 6.07 in data set [1] (Panc1, Calcusyn fit, runs Oct. 21 and Oct. 24, 2016, listed as NSAAH (new), read-out: Dm); 6.26 and 6.32 in data set [1] (Panc1, Calcusyn fit, runs Oct. 21 and Oct. 24, 2016, listed as NSAAH (old), read-out: Dm); 6.75 in data set [2] (Calcusyn fit, runs Oct. 21 and Oct. 24, 2016, listed as NSAAH (new), read-out: Dm); 6.63 and 6.78 in data set [2] (Calcusyn fit, runs Oct. 21 and Oct. 24, 2016, listed as NSAAH (old), read-out: Dm). Moreover, in data set [3], the cytotoxicity entry is reported as “little measurable cytotoxicity”.

With `NC1(c2cn([C@H](c3ccccc3)[C@H](O)c3ccccc3)nn2)CCCCC1` [NSAAT E], the pIC50 in data set [1] (setting [4]) was less than 5.00; in data set [2] (setting [5]), 4.18.

Turning to `O=C(c1c(O)ccc2ccccc12)n1cc(-c2cccnc2)nn1` [NSAAT F], the pIC50 in data set [1] (setting [4]) and in data set [2] (setting [5]) was less than 5.00 each time.

Regarding `Oc1ccccc1-c1nnc(-c2c(O)ccc3ccccc23)o1` [Oxa A], the pIC50 in data set [1] (setting [4]) is 4.27; in data set [1] (setting [6]) it was 5.15; in data set [2] (setting [7]) it was 5.49; in data set [2] (setting [5]) it was 5.16. The “activity in cell growth inhibition” value in data set [1] and in data set [2] was “low micromolar range” each time.

Take `Oc1ccc2ccccc2c1-c1nnc(-c2cccnc2)o1` [Oxa F]: the pIC50 was 5.72 in data set [1] (setting [4]), 5.60 in data set [1] (setting [6]), 5.92 in data set [2] (setting [7]) and 5.85 in data set [2] (setting [5]). For the same compound, the “activity in cell growth inhibition” value in data set [1] and in data set [2] was “low micromolar range” each time.

On to `Nc1nc(Cl)nc2c1ncn2[C@@H]1O[C@H](CO)[C@@H](O)[C@@H]1F` [clofarabine, 2′-fluro-2′-deoxyarabinofuranosyl-2-chloroadenine], for which the binding affinity result on hRRM1 hexamers was “nanomolar affinity”.

With `NC1(c2cn([C@H](c3ccccc3)[C@H](O)c3ccccc3)nn2)CCCCC1` [drawing 59], the “Cellular IC50s Panc 1” value in data set [1] was “No cytotoxicity”. For the same compound, in data set [2], the “Cellular IC50s HCT-116” value is “No cytotoxicity”.

Consider `O=C(c1c(O)ccc2ccccc12)n1cc(-c2cccnc2)nn1` [drawing 60], for which the “Cellular IC50s Panc 1” value in data set [1] is “No cytotoxicity”. Moreover, the “Cellular IC50s HCT-116” value in data set [2] is listed as “No cytotoxicity”.
